{"source": "patent US11957757B2", "about": "“Method for preparing stabilized metal ion ligand nanocomplex and compositions thereof” (AUBURN UNIVERSITY, priority 2017, dated 2024)", "key": {"[1]": {"tested_on": "DU145-TXR drug-resistant prostate cancer cells", "assay": "MTT cytotoxicity assay, DU145-TXR cells", "assay_type": "cell-based", "settings": "for cell toxicity: equivalent concentrations, 48 hours", "description": "Cells were cultured at 37° C. in a humidified atmosphere containing 5% CO2. […] Cytotoxicity was calculated using the following equation: Cell Viability (%)=(ATest/Acontrol)×100%. Furthermore, IC50 was calculated with SigmaPlot software based on a dose-response curve."}, "DU145-TXR cells [2]": {"tested_on": "DU145-TXR cells", "assay": "Intracellular ROS, H2DCFDA dye method", "assay_type": "cell-based", "settings": "100 μM, positive control", "description": "The generation of ROS was determined with a 2′,7′-dichlorodihydrofluorescein diacetate (H2DCFDA) dye method. Briefly, cells were seeded in a dark-walled, clear-bottomed 96-well plate with 50,000 cells per well and incubated at 37° C. overnight before study. Cells were incubated with 20 μM H2DCFDA in Hank's Buffered Salt Solution (HBSS, pH=7.4) for 30 minutes at 37° C. in the dark, and treated with different formulations."}, "DU145-TXR cells [3]": {"tested_on": "DU145-TXR cells", "assay": "Endoplasmic reticulum (ER) staining", "settings": "0.5 μM, 8 hours"}}}
{"smiles": "CCN(CC)C(=S)S", "note": "[DDC-Na, sodium diethyldithiocarbamatetrihydrate]", "values": [{"measurement": "cell toxicity", "setting": "[1]", "value": "did not show significant cell toxicity"}]}
{"smiles": "OO", "note": "[H2O2]", "values": [{"measurement": "ROS level", "setting": "DU145-TXR cells [2]", "value": "increased"}]}
{"smiles": "CC(=O)O[C@H]1C(=O)[C@@]2(C)[C@H]([C@H](OC(=O)c3ccccc3)[C@]3(O)C[C@H](OC(=O)[C@H](O)[C@@H](NC(=O)c4ccccc4)c4ccccc4)C(C)=C1C3(C)C)[C@]1(OC(C)=O)CO[C@@H]1C[C@@H]2O", "note": "[paclitaxel]", "values": [{"measurement": "IC50", "setting": "[1]; 48 hours of treatment", "value": 2580, "unit": "nM"}, {"measurement": "ER structure (ER-specific dye staining)", "setting": "DU145-TXR cells [3]", "value": "typical reticulate structure"}]}
{"smiles": "[Cl][Cu][Cl]", "note": "[CuCl2, copper chloride]", "values": [{"measurement": "cell toxicity", "setting": "[1]", "value": "did not show significant cell toxicity"}]}
